Results as given in patent publication US20240335500A1, “CONTROLLING PRO-INFLAMMATORY MACROPHAGE PHENOTYPE THROUGH BIOFUNCTIONAL HYDROGEL DESIGN” (UNIVERSITY OF FLORIDA RESEARCH FOUNDATION, INCORPORATED, priority 2021, published 2024).

How the values were obtained:
platelets = settings: Luzak et al.; cited from earlier work
Raw 264.7 macrophages [1] = test: Soluble delivery of DGEA to macrophages encapsulated in 3D control PEG hydrogels, iNOS/DAPI immunostaining; format: cell-based, mouse; settings: 3D control hydrogel (3.5 mM PEG-RGDS, 5% PEG-PQ-PEG), 5 mM soluble DGEA in M1 media, 72 hrs; non-significant (p>0.05)
Method: Raw 264.7 macrophages were encapsulated within the hydrogel. These quiescent M0 macrophages were allowed to equilibrate in the incubator for 24 hrs, after which M1 media was added to stimulate them towards the pro-inflammatory phenotype. At this time, 5 mM DGEA was also dissolved into the media and the samples were incubated for another 72 hrs. The samples were then fixed, stained, imaged, and analyzed. The immunofluorescent images represent DAPI stained cells and iNOS stained cells (inset (b) in FIG. 2). The 3D hydrogels were imaged using a Keyence BZ-X800 microscope and the images represent 2D slices of an entire 3D Z-stack. […] The data were statistically non-significant (p>0.05). […]
(§1) Cells were stimulated with M1 media 24 hrs post-seeding and post-encapsulation. In all studies, the effects of DGEA on the cells were assessed 72 hrs post-stimulation with M1 media by immunocytochemistry (ICC). […]
Images were quantified based on the number of iNOS^+ cells, normalized to DAPI^+ cells for each condition. Images were analyzed using the “automated cell counting of single color image” feature on ImageJ (NIH) software after a randomized, unbiased selection of images. All images were turned to 8-bit grayscale and threshold to highlight all the cells to be counted. […]

[2] = system: TNFα, IL-6, iNOS gene expression; test: RT-PCR of pro-inflammatory gene expression (TNFα, IL-6, iNOS); format: cell-based; settings: FIG. 7
From the text: The results validate the inflammation inhibiting properties of DGEA by looking at pro-inflammatory gene expressions. The genes assessed include TNFα (a); IL-6 (b); and iNOS (c).

ovarian carcinoma cells = settings: Fishman et al.; cited from earlier work
α2β1 integrin = biological target: T1, α2β1 integrin (Homo sapiens, UniProt P05556+P17301); settings: DGEA-coated plates, Cha et al.; cited from earlier work
T1 construct: Integrin α2β1 appears to play a pivotal role in macrophage polarization by affecting downstream signaling pathways

bone marrow cells = bone marrow cells encapsulated in type I collagen matrix gels, Mizuno et al.; cited from earlier work
Raw 264.7 macrophages [3] = test: Soluble delivery of DGEA to 2D cultures of M1-stimulated macrophages, iNOS/DAPI immunostaining; format: cell-based, mouse; settings: 2D culture, M1 media (100 ng/mL LPS, 10 ng/mL IFNγ), 5 mM soluble DGEA, 72 hrs; without DGEA 0.5±0.1; p<0.05
Method: To establish interactions between DGEA and M1 macrophages, a 2D study was conducted with soluble delivery of DGEA to the media culture. […] 5 mM DGEA was dissolved in the media to assess the effects of DGEA on macrophage activation (S. Y. Yoo, M. Kobayashi, P. P. Lee, and S. W. Lee, “Early osteogenic differentiation of mouse preosteoblasts induced by collagen-derived DGEA-peptide on nanofibrous phage tissue matrices,” Biomacromolecules, vol. 12, no. 4, pp. 987-996, April 2011). After stimulation, the cells were stained for 4′,6-diamidino-2-phenylindole (DAPI) and iNOS (inset (b) of FIG. 1). The addition of 5 mM DGEA in the media reduced the number of iNOS^+ cells, as represented in insets (b) and (c) in FIG. 1. The iNOS^+ cell count was normalized to the number of DAPI^+ cells for each image chosen to be analyzed. […] Polarized iNOS^+ macrophage cells with soluble DGEA were dramatically lower than iNOS^+ macrophage cells without any presence of DGEA. […] ECM-derived peptides have been investigated in cell function. For example, the interaction between collagen and α2β1 integrin is important for the osteoblastic differentiation of bone marrow cells. […]
as §1

Raw 264.7 macrophages [4] = test: iNOS and CD206 expression in M0, M1 and M2 raw 264.7 macrophages encapsulated in control and PEG-DGEA hydrogels; format: cell-based, mouse

T1 sequence (P17301 30-1181): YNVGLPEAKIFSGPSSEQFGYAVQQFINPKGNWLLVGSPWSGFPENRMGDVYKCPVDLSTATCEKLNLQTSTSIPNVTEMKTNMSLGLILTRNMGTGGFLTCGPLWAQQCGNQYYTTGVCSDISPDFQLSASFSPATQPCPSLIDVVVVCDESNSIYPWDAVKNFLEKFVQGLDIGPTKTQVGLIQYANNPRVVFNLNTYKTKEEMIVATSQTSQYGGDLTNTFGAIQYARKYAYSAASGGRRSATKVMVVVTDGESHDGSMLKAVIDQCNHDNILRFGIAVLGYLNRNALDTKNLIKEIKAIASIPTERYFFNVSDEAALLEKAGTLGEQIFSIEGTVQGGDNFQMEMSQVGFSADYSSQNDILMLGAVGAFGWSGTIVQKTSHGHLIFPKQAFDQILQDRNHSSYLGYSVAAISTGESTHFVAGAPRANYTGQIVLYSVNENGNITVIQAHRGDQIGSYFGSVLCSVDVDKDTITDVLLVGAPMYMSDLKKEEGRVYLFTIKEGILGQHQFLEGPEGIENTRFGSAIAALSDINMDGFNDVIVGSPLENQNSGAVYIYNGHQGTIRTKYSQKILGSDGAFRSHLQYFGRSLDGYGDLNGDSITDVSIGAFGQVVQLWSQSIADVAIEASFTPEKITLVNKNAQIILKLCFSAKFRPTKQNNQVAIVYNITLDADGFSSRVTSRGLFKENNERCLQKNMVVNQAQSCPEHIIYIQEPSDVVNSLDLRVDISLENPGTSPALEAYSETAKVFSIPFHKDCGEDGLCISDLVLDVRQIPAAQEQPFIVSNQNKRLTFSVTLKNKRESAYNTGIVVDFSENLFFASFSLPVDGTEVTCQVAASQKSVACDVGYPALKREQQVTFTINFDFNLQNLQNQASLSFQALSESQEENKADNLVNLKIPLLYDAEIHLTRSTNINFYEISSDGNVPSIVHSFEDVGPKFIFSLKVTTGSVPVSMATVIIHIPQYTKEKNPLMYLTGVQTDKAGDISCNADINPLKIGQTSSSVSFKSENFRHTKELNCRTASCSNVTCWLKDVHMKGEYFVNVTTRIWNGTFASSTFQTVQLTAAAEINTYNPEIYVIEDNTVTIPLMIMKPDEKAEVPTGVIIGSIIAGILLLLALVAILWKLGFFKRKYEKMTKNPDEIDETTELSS
T1 sequence (P05556 21-798): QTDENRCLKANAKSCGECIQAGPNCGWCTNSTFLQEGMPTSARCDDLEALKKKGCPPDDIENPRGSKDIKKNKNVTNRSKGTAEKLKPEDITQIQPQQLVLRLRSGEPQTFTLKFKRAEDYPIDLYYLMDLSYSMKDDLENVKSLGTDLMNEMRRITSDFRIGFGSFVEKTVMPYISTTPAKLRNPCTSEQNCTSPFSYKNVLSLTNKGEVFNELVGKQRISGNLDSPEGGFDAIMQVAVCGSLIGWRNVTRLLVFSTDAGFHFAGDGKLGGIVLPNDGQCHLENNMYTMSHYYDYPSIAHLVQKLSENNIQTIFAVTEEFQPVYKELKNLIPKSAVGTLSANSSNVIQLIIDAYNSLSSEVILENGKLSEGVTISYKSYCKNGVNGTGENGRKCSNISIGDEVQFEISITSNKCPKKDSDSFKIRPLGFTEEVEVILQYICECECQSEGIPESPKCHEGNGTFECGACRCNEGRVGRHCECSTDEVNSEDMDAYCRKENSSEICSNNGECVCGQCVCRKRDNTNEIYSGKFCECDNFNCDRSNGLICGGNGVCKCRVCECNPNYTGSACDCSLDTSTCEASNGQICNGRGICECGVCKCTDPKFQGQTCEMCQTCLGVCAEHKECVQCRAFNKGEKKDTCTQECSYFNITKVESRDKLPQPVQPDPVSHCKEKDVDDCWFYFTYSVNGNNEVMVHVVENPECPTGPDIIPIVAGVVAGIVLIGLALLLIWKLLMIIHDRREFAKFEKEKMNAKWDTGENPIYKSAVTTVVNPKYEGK

Asp-Gly-Glu-Ala (DGEA; DGEA peptide sequence)
platelet adhesion (platelets): significant inhibition in platelet adhesion
number of iNOS+ cells (normalized to DAPI+ cells) (Raw 264.7 macrophages [1]): lower than the number of iNOS^+ cells without any DGEA
expression of pro-inflammatory mediators (TNFα, IL-6, iNOS) by RT-PCR [2]: significantly reduces expression
adhesion of ovarian carcinoma cells to collagen (ovarian carcinoma cells): block adhesion
expression of CD206 (M2 marker) (α2β1 integrin): higher expression of CD206
expression of osteoblastic phenotype (bone marrow cells): inhibited the expression of osteoblastic phenotype
iNOS+ M1 activated macrophages as fraction of the total DAPI+ cells (Raw 264.7 macrophages [3]): 0.1±0.1
iNOS expression (Raw 264.7 macrophages [4]; M0, M1 and M2 macrophages encapsulated in PEG-DGEA vs control hydrogels, FIG. 8): reduced iNOS expression
CD206 expression (Raw 264.7 macrophages [4]; M1 or M2 macrophage phenotypes in PEG-DGEA hydrogels, FIG. 9): did not appear to have any significant effects
